This is an account of results in patent US20250179187A1, “ANTI PD-L2 ANTIBODY” (REJUVERON SENESCENCE THERAPEUTICS AG, priority 2022, published 2025).

The assay concerns PyMT spontaneous tumors. The assay can be described thus: Spontaneous mouse PyMT breast tumor model with tumor immunostaining. Format: in vivo. To be noted: immunohistochemistry; antibody co-treated with doxorubicin vs Vehicle or Doxorubicin+mIgG1 (p<0.05). Here is the method:
Hemizygous transgenic PyMT mice were allowed to develop tumors to an average size of around 200 cubic millimeters, usually around 9 weeks, at which time treatment was initiated, with N=3-5 per treatment group. Doxorubicin (Aurovitas) was administered intraperitoneally once per week at 4 mg/kg and antibodies were administered every three days at a dose of 10 mg/kg during four weeks or 3 mg/kg where noted. Vehicle-treated animals received only vehicle solvent for doxorubicin as a no-treatment control. Tumors were measured with a standard caliper once per week. At the end of the study, tumors were resected and further analyzed by immunohistochemistry. […]
For double SA-beta-galactosidase/PD-L2 staining, following resection, tumors were fixed in 2% paraformaldehyde and 0.2% glutaldehyde in PBS for 2 hours at room temperature. […] To quantify the number of cells double positive for SA-beta-galactosidase and PDL2, 3 random fields from 2 mammary glands from each animal in each treatment group was analyzed with Image J software. Staining for CD3, CD4 and CD8 was also carried out by standard immunohistochemistry techniques on paraffin-embedded material and quantified according to pixel density using Image J software.

Consider `COc1cccc2c1C(=O)c1c(O)c3c(c(O)c1C2=O)C[C@@](O)(C(=O)CO)C[C@@H]3O[C@H]1C[C@H](N)[C@H](O)[C@H](C)O1` [doxorubicin, reference compound], for which the “cells double-positive for PD-L2 and SA-βGal in PyMT tumors” value is recorded as “significantly induces double-positive cells”.
